From patent US8562998B2, “Targeting of antigen presenting cells with immunonanotherapeutics” (President and Fellows of Harvard College, priority 2008, dated 2013)

Test system: anti-nicotine IgG
Assay: Anti-nicotine IgG titers in immunized mice (ELISA)
Type: in vivo, C57BL6 mice
Details: immunized day 0, boosted after 2, 4 and 8 weeks

## CN1CCCC1c1cccnc1 (stereo not shown) [free nicotine, nicotine]
  production of nicotine antibodies: does not elicit the production of nicotine antibodies
